Structures can show the parent of a compound that is named as a salt. Some results are limits rather than exact numbers.

The values below come from patent US9562057B2, “(Thieno[2,3-b][1,5]benzoxazepin-4-yl)piperazin-1-yl compounds as dual activity H1 inverse agonists/5-HT2A antagonists” (Eli Lilly and Company, priority 2013, dated 2017).

Assay [1] has as its target T1, 5-HT2B (Homo sapiens, UniProt P41595). Description: 5-HT2B binding. The source says: (§1) Further, the compounds of the invention may be tested in binding assays and functional activity assays by well known methods for other physiologically important receptors such as, but not limited to, the hERG channel, other serotonin receptors (specifically 5-HT1B and 5-HT1D receptors, lack of agonist activity at 5-HT2B receptors, 5-HT2C, 5-HT5, 5-HT6, and 5-HT7 receptors), dopaminergic receptors (specifically D1, D2, and D3), GABAA receptors, adrenergic receptors and monoamine transporters.

The target of another assay is T2, 5-HT2A receptor (Mus musculus, UniProt P35363).
T2 construct: The in vivo 5-HT2A receptor antagonist activity; from tissue; host or cells: living C57BL/6J mice
T2 sequence (P35363 whole entry): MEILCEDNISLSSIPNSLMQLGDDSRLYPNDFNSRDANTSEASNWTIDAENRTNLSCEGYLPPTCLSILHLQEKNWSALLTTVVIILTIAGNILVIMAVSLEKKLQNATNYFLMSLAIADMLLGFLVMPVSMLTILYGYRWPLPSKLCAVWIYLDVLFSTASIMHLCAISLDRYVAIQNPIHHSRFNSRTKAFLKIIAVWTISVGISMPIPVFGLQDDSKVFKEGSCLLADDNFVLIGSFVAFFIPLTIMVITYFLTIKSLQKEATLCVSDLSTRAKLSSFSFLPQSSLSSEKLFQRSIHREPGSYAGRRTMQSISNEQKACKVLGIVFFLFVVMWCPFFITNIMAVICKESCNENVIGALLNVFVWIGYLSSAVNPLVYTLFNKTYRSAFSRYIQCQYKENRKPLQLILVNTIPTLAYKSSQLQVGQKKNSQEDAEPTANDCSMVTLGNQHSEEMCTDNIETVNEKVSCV
The assay is described as follows: Inhibition of DOI induced headshake activity. It counts as in vivo. Conditions: male C57BL/6J mice, 10 mg/kg PO, 3 mg/kg DOI, 60 min. pre-treatment. The method, then:
(see for example Bartoszyk G D, van Amsterdam C, Böttcher H, Seyfried C A. EMD 281014, a new selective serotonin 5-HT2A receptor antagonist. Eur J Pharmacol. 2003 473: 229-230.) Briefly, male C57BL/6J mice (20-25 g, Charles River) are housed in standard housing conditions ([…], 07.00 to 19.00 light phase, constant temperature (19-23° C.) and humidity (50%+/−10), ad lib food and water). Mice received either vehicle (0.25% Methyl cellulose), DOI (3 mg/kg in saline) or test compound at 10 mg/kg PO plus DOI (3 mg/kg in saline). Test compounds are individually evaluated in groups of four per experiment with n=4 for each compound, together with vehicle and DOI+vehicle (n=8). After a test compound pre-treatment time of 60 min. the mice receive either vehicle (saline) or 3 mg/kg DOI dosed subcutaneously, and are then placed into clear perspex observation chambers. […] The data is analyzed using an ANOVA and post-hoc Dunnet's Test. The compound of example 2 is tested essentially as described and is found to inhibit the DOI induced headshake response produced by 3 mg/kg DOI by 100% at 10 mg/kg.

Assay [2] concerns the target T3, recombinant 5-HT2A receptor (human) (Homo sapiens, UniProt P28223).
T3 construct: expressed in transfected cells; host or cells: AV-12
The assay is described as follows: 5-HT2A competition binding assay ([3H]-Ketanserin, SPA). The protocol: [^3H]-Ketanserin binding experiments are carried out in SPA 96-well format. Membranes used in this assay are prepared from AV-12 cells stably expressing recombinant 5-HT2A receptor (human). The incubation is initiated by the addition of a mixture of WGA YSi SPA beads (1 mg/well, Perkin Elmer (MA, USA), RPNQ0011) and 2 μg membranes to assay buffer (67 mM Tris, 0.5 mM EDTA; pH 7.6) containing 3.1 nM [^3H]-Ketanserin and varying concentrations of the test compound (10 point concentration response curves). Non-specific binding is determined in the presence of 20 μM 1-(1-naphthyl) piperazine. Samples are incubated for 4 hr. at room temperature (22° C.) and then read in a Microbeta® Trilux.
Binding data analysis Curves are evaluated using a 4-parameter logistic nonlinear equation to obtain the concentration of competitor causing 50% inhibition of radioligand binding (IC50). Equilibrium dissociation constants (Ki) are calculated according to the equation Ki=IC50/(1+L/Kd), where L equals the concentration of radioligand used in the experiment and Kd equals the equilibrium dissociation constant of the radioligand for the receptor, determined from standard saturation analysis or homologous competition experiments. Reported values for Ki, where n values are indicated, are shown as geometric mean±the standard error of the mean (SEM), with the number of replicate determinations indicated by n. […]

Assay [3] has as its target T1, 5-HT2B. Description: 5-HT2B agonist functional activity. Conditions: agonist mode. It counts as biochemical.
Excerpt: as §1

The next assay has as its target Adrenergic alpha2B (Homo sapiens, UniProt P18089). Description: Adrenergic alpha2B binding.
Excerpt: as §1

For another assay, the target named is 5-HT5 (Homo sapiens, UniProt P47898). Description: 5-HT5 binding.
Sequence of 5-HT5 (P47898 whole entry, species assumed): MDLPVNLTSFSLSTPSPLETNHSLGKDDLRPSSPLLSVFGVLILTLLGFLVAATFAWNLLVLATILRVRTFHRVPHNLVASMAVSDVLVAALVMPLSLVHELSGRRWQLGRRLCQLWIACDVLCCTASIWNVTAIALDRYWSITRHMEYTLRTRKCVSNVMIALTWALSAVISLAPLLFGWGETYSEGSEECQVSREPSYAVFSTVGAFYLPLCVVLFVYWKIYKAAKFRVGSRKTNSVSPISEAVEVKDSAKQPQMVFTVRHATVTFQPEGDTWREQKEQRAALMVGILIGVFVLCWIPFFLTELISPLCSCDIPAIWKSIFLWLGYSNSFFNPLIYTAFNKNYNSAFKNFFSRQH
Excerpt: as §1

The target in the next assay is Norepinephrine Transport (Homo sapiens, UniProt P23975). Description: Norepinephrine transporter binding.
Sequence of Norepinephrine Transport (P23975 whole entry): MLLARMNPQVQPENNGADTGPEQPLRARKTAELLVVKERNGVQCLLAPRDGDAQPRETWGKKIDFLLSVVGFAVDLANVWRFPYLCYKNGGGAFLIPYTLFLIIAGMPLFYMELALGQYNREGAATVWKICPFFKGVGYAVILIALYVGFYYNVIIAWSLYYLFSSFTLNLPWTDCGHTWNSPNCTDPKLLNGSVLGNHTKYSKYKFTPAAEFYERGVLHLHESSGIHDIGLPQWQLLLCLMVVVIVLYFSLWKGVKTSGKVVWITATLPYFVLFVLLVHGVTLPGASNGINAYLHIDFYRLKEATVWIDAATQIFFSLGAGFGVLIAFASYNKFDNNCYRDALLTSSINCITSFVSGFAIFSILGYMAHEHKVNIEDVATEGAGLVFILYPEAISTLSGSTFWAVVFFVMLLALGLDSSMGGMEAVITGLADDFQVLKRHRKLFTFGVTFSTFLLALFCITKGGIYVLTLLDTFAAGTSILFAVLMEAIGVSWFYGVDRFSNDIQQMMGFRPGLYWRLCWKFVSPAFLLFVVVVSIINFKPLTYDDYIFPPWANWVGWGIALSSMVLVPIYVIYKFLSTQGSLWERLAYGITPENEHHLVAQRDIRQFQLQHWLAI
Excerpt: as §1

A further assay deals with 5-HT7 (Homo sapiens, UniProt P34969). Description: 5-HT7 binding.
Sequence of 5-HT7 (P34969 whole entry, species assumed): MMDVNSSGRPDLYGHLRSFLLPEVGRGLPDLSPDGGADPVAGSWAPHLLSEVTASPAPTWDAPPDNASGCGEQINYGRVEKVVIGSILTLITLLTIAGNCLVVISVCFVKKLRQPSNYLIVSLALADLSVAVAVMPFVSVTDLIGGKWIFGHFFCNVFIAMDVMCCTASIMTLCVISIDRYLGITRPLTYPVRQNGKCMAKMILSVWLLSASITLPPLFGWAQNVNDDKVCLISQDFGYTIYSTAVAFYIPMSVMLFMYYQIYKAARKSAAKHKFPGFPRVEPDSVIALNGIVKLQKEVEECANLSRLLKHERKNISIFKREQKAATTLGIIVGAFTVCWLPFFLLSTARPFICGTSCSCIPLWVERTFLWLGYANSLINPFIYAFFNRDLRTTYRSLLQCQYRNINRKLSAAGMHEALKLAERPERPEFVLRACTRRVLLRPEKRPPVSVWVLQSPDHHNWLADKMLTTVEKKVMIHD
Excerpt: as §1

The next assay has as its target Adrenergic alpha2C (Homo sapiens, UniProt P18825). The assay is described as follows: Adrenergic alpha2C binding.
Excerpt: as §1

For the next assay, the target named is Adrenergic alpha1A (Homo sapiens, UniProt P35348). The assay is described as follows: Adrenergic alpha1A binding.
Sequence of Adrenergic alpha1A (P35348 whole entry): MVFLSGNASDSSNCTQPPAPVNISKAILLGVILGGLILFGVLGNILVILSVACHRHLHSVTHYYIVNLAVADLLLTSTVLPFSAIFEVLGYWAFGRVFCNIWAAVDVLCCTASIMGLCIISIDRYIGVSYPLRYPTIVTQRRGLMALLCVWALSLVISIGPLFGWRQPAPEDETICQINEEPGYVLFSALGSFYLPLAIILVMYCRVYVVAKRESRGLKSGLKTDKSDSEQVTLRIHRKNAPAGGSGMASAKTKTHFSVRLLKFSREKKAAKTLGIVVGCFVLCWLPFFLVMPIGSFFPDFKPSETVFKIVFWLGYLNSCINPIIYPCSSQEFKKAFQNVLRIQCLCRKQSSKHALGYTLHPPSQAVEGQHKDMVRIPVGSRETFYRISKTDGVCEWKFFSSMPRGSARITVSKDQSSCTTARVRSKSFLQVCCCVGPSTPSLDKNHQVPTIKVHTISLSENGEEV
Excerpt: as §1

The next assay deals with Dopamine Transporter (Homo sapiens, UniProt Q01959). Description: Dopamine transporter binding.
Sequence of Dopamine Transporter (Q01959 whole entry): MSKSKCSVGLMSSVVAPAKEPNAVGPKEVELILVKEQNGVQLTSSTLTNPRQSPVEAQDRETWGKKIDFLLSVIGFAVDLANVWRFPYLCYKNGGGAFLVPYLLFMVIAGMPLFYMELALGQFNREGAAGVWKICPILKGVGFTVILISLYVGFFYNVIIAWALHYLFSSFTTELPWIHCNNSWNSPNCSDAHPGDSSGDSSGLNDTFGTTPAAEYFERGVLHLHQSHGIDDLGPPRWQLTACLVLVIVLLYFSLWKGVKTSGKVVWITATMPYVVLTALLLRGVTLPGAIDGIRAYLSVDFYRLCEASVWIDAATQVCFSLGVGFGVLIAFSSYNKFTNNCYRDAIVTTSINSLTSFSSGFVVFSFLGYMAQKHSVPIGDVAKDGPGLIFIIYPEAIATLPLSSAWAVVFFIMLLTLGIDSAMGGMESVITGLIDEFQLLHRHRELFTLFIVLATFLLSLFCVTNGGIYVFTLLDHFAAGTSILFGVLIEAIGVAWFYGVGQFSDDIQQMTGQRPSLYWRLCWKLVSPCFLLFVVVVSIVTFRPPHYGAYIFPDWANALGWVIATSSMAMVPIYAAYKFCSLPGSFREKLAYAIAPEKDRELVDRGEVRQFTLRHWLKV
Excerpt: as §1

A further assay deals with native GABAA receptors. Description: GABAA antagonism using native receptors in primary neuronal cultures (FLIPR calcium flux). It counts as cell-based. Conditions: against 10 μM GABA, rat cortical embryonic neurons. The method, then: Activity of compounds on native GABAA receptors is evaluated by monitoring calcium fluxes using a 96 well format FLIPR® system (Fluorometric Imaging Plate Reader (FLIPR®, Molecular Devices). Briefly, cortical embryonic neurons are dissociated from E18 rat embryos and plated at optimum density into black-walled, transparent bottom poly-D-lysine coated 96-well FLIPR® plates. After loading the cells with a calcium sensitive dye (Fluo4-AM, Molecular Devices), the cells are bathed in a solution containing low chloride (chloride replaced by gluconate). Under these conditions activation of GABAA receptors causes an efflux of chloride ions (in the direction of the chemical gradient), which results in membrane depolarization and consequently activation of voltage gated calcium channels (VGCCs). Calcium influx through VGCCs is recorded and analysed offline using the FLIPR® system. For a pharmacological validation of the assay, concentration response curves (CRC) are recorded for the standard agonist (GABA) and standard antagonist (Gabazine). […]
The antagonist effects of compounds are quantified using 10-point dose response curves by comparing the peak fluorescent responses to the agonist GABA in the presence and absence of compound. […] Antagonist effects are calculated as a percent of the assay window. […]
In general terms: Calcium assays in cells follow changes in intracellular calcium, usually with a dye or a luminescent sensor.

A further assay deals with Dopamine D1 (Homo sapiens, UniProt P21728). The assay is described as follows: Dopamine D1 binding.
Sequence of Dopamine D1 (P21728 whole entry): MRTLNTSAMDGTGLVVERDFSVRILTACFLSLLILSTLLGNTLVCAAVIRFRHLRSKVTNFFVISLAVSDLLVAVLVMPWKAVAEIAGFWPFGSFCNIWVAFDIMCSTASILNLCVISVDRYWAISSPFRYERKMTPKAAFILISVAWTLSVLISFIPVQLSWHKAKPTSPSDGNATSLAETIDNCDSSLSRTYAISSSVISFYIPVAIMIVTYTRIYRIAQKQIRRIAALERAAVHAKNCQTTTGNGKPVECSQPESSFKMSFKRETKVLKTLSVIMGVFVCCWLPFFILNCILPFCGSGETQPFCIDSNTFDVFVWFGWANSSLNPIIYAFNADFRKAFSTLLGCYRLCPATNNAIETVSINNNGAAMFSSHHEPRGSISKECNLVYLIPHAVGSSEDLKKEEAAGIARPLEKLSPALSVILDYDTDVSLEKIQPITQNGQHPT
Excerpt: as §1

T1 sequence (P41595 whole entry, species assumed): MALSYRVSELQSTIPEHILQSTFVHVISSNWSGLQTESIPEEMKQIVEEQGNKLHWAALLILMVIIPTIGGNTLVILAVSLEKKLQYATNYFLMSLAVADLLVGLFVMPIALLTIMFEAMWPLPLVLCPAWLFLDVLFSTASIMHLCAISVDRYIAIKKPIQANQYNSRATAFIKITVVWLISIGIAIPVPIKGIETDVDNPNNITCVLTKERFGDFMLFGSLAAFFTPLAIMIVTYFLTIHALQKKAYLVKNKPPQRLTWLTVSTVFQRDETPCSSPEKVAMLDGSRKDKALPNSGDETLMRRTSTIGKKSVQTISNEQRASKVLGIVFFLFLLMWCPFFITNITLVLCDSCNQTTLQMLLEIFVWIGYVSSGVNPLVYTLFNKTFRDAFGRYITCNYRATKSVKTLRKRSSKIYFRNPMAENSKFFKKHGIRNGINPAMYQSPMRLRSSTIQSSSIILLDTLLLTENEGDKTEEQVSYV
T3 sequence (P28223 whole entry): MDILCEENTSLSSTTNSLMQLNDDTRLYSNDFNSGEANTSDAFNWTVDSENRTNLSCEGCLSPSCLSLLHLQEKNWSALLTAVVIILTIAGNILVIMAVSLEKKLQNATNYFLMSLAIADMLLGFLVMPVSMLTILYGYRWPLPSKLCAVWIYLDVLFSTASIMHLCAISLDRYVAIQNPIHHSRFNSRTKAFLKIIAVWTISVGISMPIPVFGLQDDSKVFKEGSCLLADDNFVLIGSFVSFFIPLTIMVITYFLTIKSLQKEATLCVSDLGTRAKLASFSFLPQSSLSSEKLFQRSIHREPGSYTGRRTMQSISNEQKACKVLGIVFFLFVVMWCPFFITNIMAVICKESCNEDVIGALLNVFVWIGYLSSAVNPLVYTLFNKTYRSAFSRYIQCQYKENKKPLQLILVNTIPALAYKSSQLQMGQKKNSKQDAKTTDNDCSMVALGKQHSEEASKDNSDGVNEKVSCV
Sequence of Adrenergic alpha2C (P18825 whole entry): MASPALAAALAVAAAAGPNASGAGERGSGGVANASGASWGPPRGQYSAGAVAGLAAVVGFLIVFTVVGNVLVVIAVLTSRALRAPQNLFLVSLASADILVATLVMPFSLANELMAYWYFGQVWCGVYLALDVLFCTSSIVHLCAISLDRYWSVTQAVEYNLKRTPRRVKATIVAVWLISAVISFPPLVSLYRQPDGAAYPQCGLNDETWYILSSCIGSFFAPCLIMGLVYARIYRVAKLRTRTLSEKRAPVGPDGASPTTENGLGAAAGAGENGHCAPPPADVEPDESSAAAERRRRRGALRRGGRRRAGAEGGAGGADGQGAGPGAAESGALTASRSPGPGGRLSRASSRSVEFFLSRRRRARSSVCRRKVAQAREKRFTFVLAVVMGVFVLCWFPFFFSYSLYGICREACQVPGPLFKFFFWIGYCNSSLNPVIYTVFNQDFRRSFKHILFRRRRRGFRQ

As usually defined, the Ki is the dissociation constant of the complex between target and ligand, obtained from inhibition or displacement. One may read the EC50 as the concentration needed to bring the measured effect to its halfway point. As a reminder, the IC50 is the point on the concentration scale where inhibition reaches its midpoint. Take `Cc1ccc2c(c1)Oc1sc(C3CC3)cc1C(N1CCN(CC(C)(C)C(=O)O)CC1)=N2` [Example 2, 3-[4-(2-Cyclopropyl-8-methyl-thieno[2,3-b][1,5]benzoxazepin-4-yl)piperazin-1-yl]-2,2-dimethyl-propanoic acid dihydrochloride]: the Ki on 5-HT2B [1] is 0.118 µM; in [2] it was 0.0102 µM; on Adrenergic alpha2B it was 1.06 µM; on 5-HT5, 3.48 µM; on Norepinephrine Transport, above 0.671 µM; at 5-HT7, above 2.06 µM. Besides, the Ki at Adrenergic alpha2C is 1.38 µM; on Adrenergic alpha1A it was 4.62 µM; on Dopamine Transporter it was above 0.867 µM; on Dopamine D1, 0.996 µM. For the same compound, on 5-HT2A receptor, the “inhibition of DOI induced headshake response” value turned out to be 100%. Also, the EC50 at 5-HT2B [3] was above 10 µM. In addition, the IC50 in the assay with native GABAA receptors was above 100 µM.
